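Method: 48-hour compound exposure of cells in 96-well plates, five concentrations, linear interpolation of endpoints. Abbreviation: GI50, concentration required for 50% inhibition of growth. TGI denotes the concentration required for complete inhibition of growth.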
Tests used:
Assay in all cases: DTP human tumour cell line panel, 48 h
[1] = test system: MCF7 breast
[2] = test system: SNB-19 CNS
[3] = test system: SF-295 CNS
[4] = test system: RPMI-8226 leukemia
[5] = test system: KM12 colon
[6] = test system: OVCAR-5 ovarian
[7] = test system: IGROV1 ovarian
[8] = test system: SNB-75 CNS
[9] = test system: A549 NSCLC
[10] = test system: K-562 leukemia

## COc1ccc(SC2c3cc(OC)c(OC)cc3Oc3nc(N)c(C#N)c(N)c32)cc1 (stereo unspecified)
[1]
  GI50: 0.454 µM
  TGI: 2.1 µM
[2]
  GI50: 1.32 µM
  TGI: 2.64 µM
[3]
  GI50: 1.6 µM
  TGI: 2.96 µM
[4]
  GI50: 0.354 µM
  TGI: 1.81 µM
[5]
  GI50: 1.53 µM
  TGI: 3.05 µM
[6]
  GI50: 1.75 µM
  TGI: 3.39 µM
[7]
  GI50: 0.762 µM
  TGI: 2.37 µM
[8]
  GI50: 1.31 µM
  TGI: 2.62 µM

## Nc1ccc(-c2nc3ccc4[nH]ncc4c3c3c2CCCC3)cc1F
[9]
  GI50: 1.04 µM
  TGI: 9.54 µM
[1]
  GI50: 1.09 µM
  TGI: 8.92 µM
[2]
  GI50: 2.48 µM
  TGI: 32.1 µM
[3]
  GI50: 2.85 µM
  TGI: 11.1 µM
[4]
  GI50: 0.842 µM
  TGI: 7.37 µM
[10]
  GI50: 1.98 µM
  TGI: 22.8 µM
[5]
  GI50: 1.11 µM
  TGI: 6.3 µM
[6]
  GI50: 2.42 µM
  TGI: 23 µM
[7]
  GI50: 0.407 µM
  TGI: 11.2 µM
[8]
  GI50: 1.35 µM
  TGI: 3.42 µM

## S=c1nc(-c2ccccc2)oc(=NC2CCCCC2)n1C1CCCCC1
[9]
  GI50: 2.26 µM
  TGI: 8.21 µM
[1]
  GI50: 3.2 µM
  TGI: 12.2 µM
[2]
  GI50: 5.05 µM
  TGI: 17.4 µM
[3]
  GI50: 4.07 µM
  TGI: 37.4 µM
[4]
  GI50: 2.69 µM
  TGI: 6.51 µM
[10]
  GI50: 5.25 µM
  TGI: > 100 µM
[5]
  GI50: 3.48 µM
  TGI: 10.1 µM
[6]
  GI50: 8.54 µM
  TGI: 30.3 µM
[7]
  GI50: 3 µM
  TGI: 8.13 µM
[8]
  GI50: 4.65 µM
  TGI: 17.5 µM

Reference: PubChem BioAssay (NCI)
